Target: VEGFR II (KDR) kinase (Homo sapiens, UniProt P35968)
Assay: Inhibition of KDR kinase activity (33P-ATP incorporation into poly-(Glu4Tyr), phosphocellulose filter)
Type: biochemical
Settings: 10 minutes at room temperature; substrate poly-(Glu4Tyr)
Method: Stock solutions Stock solution A: 3 mM ATP in water pH 7.0 (−70° C.) Stock solution B: g-33P-ATP 1mCi/100 μl Stock solution C: poly-(Glu4Tyr) 10 mg/ml in water
• Substrate solvent: 10 mM DTT, 10 mM manganese chloride 100 mM magnesium chloride • Enzyme solution: 120 mM Tris/HCl, pH 7,5, 10 μM sodium vanadium oxide
10 μl of substrate mix [10 μl vol ATP stock solution A+25 μCi g-33P-ATP (ca. 2.5 μl of stock solution B)+30 μl poly-(Glu4Tyr) stock solution C+1.21 ml substrate solvent], 10 μl inhibitor solution [substances corresponding to the dilutions, as a control 3% DMSO in substrate solvent] and 10 μl enzyme solution [11.25 μg enzyme stock solution (KDR or FLT-1 kinase) are diluted at 4° C. in 1.25 ml enzyme solution], are added to a tapering microtitre plate (without protein binding). The mixture is mixed thoroughly and incubated for 10 minutes at room temperature. Subsequently, 10 μl of stop solution (250 mM EDTA, pH 7.0) is added, mixed and 10 μl of the solution transferred to a P 81 phosphocellulose filter. Is is subsequently washed several times in 0.1 M phosphoric acid. The filter paper is dried, coated with MeltiLex and measured in a MicroBeta counter.
The IC50 values are determined from the concentration of inhibitor required to inhibit the phosphate incorporation to 50% of the uninhibited incorporation after deducting the reference value (EDTA-stopped reaction).

Sequence of VEGFR II (KDR) kinase (P35968 20-1356, species assumed): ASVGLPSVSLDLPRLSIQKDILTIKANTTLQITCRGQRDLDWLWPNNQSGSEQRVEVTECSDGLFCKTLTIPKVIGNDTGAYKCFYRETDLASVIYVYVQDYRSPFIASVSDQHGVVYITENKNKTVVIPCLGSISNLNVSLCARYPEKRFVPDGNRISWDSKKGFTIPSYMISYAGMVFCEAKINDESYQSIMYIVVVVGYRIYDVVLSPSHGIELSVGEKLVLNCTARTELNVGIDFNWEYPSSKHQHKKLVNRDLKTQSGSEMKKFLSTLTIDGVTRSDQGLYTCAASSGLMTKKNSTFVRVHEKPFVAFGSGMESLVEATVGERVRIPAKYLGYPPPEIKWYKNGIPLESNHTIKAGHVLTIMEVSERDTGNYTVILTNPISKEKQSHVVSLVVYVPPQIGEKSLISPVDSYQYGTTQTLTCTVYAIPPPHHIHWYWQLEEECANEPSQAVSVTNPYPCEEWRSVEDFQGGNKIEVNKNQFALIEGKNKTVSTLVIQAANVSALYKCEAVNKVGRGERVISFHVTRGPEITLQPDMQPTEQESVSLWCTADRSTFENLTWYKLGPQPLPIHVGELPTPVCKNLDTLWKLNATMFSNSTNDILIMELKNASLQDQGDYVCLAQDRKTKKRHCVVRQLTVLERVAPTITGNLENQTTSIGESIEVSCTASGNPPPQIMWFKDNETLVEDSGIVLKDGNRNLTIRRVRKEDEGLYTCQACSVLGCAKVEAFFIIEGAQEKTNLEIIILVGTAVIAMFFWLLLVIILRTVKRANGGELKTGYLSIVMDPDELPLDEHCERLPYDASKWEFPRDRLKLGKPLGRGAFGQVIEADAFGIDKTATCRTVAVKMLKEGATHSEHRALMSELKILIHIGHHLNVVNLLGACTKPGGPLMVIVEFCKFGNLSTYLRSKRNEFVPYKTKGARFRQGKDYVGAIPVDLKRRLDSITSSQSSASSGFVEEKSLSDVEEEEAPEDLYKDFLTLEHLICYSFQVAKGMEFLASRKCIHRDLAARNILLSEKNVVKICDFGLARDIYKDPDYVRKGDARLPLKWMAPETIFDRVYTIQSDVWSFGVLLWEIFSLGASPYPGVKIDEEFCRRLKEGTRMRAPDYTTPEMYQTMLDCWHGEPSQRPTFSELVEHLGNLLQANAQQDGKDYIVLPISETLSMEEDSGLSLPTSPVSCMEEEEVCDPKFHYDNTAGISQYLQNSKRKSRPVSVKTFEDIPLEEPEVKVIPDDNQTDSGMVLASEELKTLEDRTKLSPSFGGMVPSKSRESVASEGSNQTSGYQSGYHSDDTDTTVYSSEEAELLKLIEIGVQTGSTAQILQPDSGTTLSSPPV

Row | IC50 | Structure (SMILES)
1 | 0.1 µM | O=C(Nc1cc2ccccc2cn1)c1cncnc1NCc1ccncc1 [Example 2.0, N-isoquinolin-3-yl-4-[(4-pyridyl)methyl]amino-pyrimidine-5-carboxylic acid amide]
2 | 0.2 µM | O=C(Nc1cccc(C(F)(F)F)c1)c1cncnc1NCc1ccncc1 [Example 2.1]

Source: patent US20110071165A1, “Aza- and polyazanthranyl amides and their use as medicaments” (NOVARTIS AG, priority 2000, published 2011)
